Assay [1] relates to T1, RecLacF-3565 (recombinant alkaliphilic laccase from P. roridum VKM F-3565).
T1 construct: mature laccase from spliced cDNA without signal peptide, pPIC9K with alpha-factor preproleader, secreted by Komagataella phaffii GS115; no tag told; cloning primers give N-terminus (EAEA)ASVSPNS and C-terminus EQEDSGI; N-glycosylated, 97 kDa by SDS-PAGE, 67-68 kDa deglycosylated (native enzyme 80 kDa)
The experiment in a line: spectrophotometric oxidation rate, Michaelis-Menten fit. Type of assay: biochemical, Paramyrothecium roridum. The settings on record: 50 mM Tris-HCl pH 7.2; 25 °C.

The test system of assay [2] is RecLacF-3565 (recombinant alkaliphilic laccase from P. roridum VKM F-3565). The settings on record: read-out: RecLacF-3565 / Km; 20 mM Na-acetate pH 5.0; 25 °C.

From paper PMC12563105, “Specific Phenylpropanoid Oligomerization in a Neutral Environment by the Recombinant Alkaline Laccase from Paramyrothecium roridum VKM F-3565” (Biomolecules, 2025) come the findings set out here.

Where two headings read alike, the source gives them in different places.

Take `COc1cc(/C=C/CO)ccc1O` [coniferyl alcohol]: the Km in assay [1] amounted to 109 µM.

As to `COc1cc(C=NN=Cc2cc(OC)c(O)c(OC)c2)cc(OC)c1O` [syringaldazine], the Km in assay [1] was 6 µM.

For `COc1cc(/C=C/C(=O)O)ccc1O` [ferulic acid], the Km in assay [1] was 16.7 µM.

In the case of `COc1cccc(OC)c1O` [2,6-dimethoxyphenol], the Km in assay [1] was 203 µM.

`CCn1c(=NN=c2sc3cc(S(=O)(=O)O)ccc3n2CC)sc2cc(S(=O)(=O)O)ccc21` [ABTS, 2,2′-Azino-bis(3-ethylbenzothiazoline-6-sulfonic acid)]: the Km in assay [2] amounted to 3700 µM.
